Experimental data: US12234208B2, “3,4-dihydroxy-n-(1′-benzyl-2′-hydroxyethyl)-2-methylpyridine chloride, and synthesis and use thereof” (HANGZHOU ZEDE PHARMA-TECH CO. LTD., priority 2020, dated 2025)
Entries after “also recorded” stand apart in the source; their conditions may differ.

Experiments:
chronic MPTP mouse model [1] = test: Traction test in chronic MPTP mouse model; assay type: in vivo, C57/BL mice
From the text: Injection was implemented every 3.5 days for 5 weeks. MPTP was converted into metabolite MPP^+ by monoamine oxidase B in glial cells after crossing the blood-brain barrier. Due to its high affinity for dopamine transporters, MPP^+ can easily enter dopaminergic neurons. By inhibiting the toxic effect of the mitochondrial complex I, it can cause oxidative stress and break intracellular calcium homeostasis, thus causing the apoptosis or necrosis of dopaminergic neurons, and finally achieving the goal of simulating PD. Probenecid was used to prevent the rapid clearance and excretion of MPTP in the brain and kidneys. In the process of model preparation, the amount of probenecid had no significant influence on the content of the dopamine in the brain. After modeling, the mice were administrated (p.o.) with the drug for one month. The two forepaws of the mice were suspended on a horizontal metal wire (5 mm in diameter and 30 cm from the ground), and the time for mice to fall from the metal wire was recorded, wherein a time over 60 seconds was counted as 60 seconds. The mice were trained twice a day before the test. […] Finally, the scores were calculated and the time for the mice to fall from the metal wire were recorded, wherein a time over 60 seconds was counted as 60 seconds.

chronic MPTP mouse model [2] = test: Morris water maze test in chronic MPTP mouse model; assay type: in vivo, C57/BL mice; settings: Compound A 100 mg/kg/d p.o. for one month; FIG. 2; 100 mg/kg/day
Procedure: A chronic MPTP (1-methyl-4-phenyl-1,2,3,6-tetrahydropyridine) mouse model was prepared to simulate PD. 250 mg/kg probenecid was intraperitoneally injected into the mice and then 25 mg/kg MPTP was intraperitoneally injected 0.5 hour later. Injection was implemented every 3.5 days for 5 weeks. MPTP was converted into metabolite MPP^+ by monoamine oxidase B in glial cells after crossing the blood-brain barrier. Due to its high affinity for dopamine transporters, MPP^+ can easily enter dopaminergic neurons. […]
The Morris water maze test can measure the changes in cognitive and memory ability. […] A camera with a display system was placed above the water maze, and the computer automatically tracked the timing and recorded the swimming track. […] The videos of the swimming path were recorded by the camera and computer, and the time of finding the platform from the entry point, namely the latency of escaping to the platform, was recorded. […] If they could not find and climb onto the platform in 90 seconds, the mice were artificially guided to find the platform and stay on the platform for 10 seconds, and the latency was recorded as 90 seconds. […] The latency was calculated on the average of four training sessions per day. […]

## Cc1c(O)c(O)cc[n+]1[C@@H](CO)Cc1ccccc1 [Compound A, (R)-3,4-dihydroxyl-N-(1′-benzyl-2′-hydroxyethyl)-2-methyl pyridine chloride]
Chronic MPTP mouse model [1]; Compound A 25 mg/kg/d p.o. for one month after modeling
  suspension time compared with the chronic MPTP model control group: no significant difference
Chronic MPTP mouse model [1]; Compound A 25 mg/kg/d p.o. for one month, FIG. 1
  suspension score compared with the chronic MPTP model control group: increased
Chronic MPTP mouse model [1]; Compound A 100 mg/kg/d p.o. for one month after modeling
  suspension time compared with the chronic MPTP model control group: no significant difference
Chronic MPTP mouse model [1]; chronic MPTP mouse model, dose not given
  muscle strength and coordination (conclusion): tendency to improve muscle strength and coordination
Chronic MPTP mouse model [2]
  cognitive function of PD model animals (water maze latency): may improve the cognitive function; also recorded: partially improve the cognitive function

## CCCN[C@H]1CCc2nc(N)sc2C1 [Pramipexol, reference compound]
Chronic MPTP mouse model [1]; Pramipexol 0.075 mg/kg/d p.o. for one month after modeling
  suspension time compared with the chronic MPTP model: decreased
